In ChEMBL document CHEMBL3769355, “Fragment-Based Design of Selective Nanomolar Ligands of the CREBBP Bromodomain” (J Med Chem, 2016):
Activity calls are given as the source filed them. No cut-off for these calls is given here.

Tests used:
CREB-binding protein [1] = molecular target: T1, CREB-binding protein (Homo sapiens, UniProt Q92793); test: Binding affinity to human His-tagged CREBBP expressed in Escherichia coli BL21(DE3) cells at 100 uM by SYPRO orange staining based fluorescence thermal shift assay
Target sequence in this assay (Q92793 2-2442 limits assumed): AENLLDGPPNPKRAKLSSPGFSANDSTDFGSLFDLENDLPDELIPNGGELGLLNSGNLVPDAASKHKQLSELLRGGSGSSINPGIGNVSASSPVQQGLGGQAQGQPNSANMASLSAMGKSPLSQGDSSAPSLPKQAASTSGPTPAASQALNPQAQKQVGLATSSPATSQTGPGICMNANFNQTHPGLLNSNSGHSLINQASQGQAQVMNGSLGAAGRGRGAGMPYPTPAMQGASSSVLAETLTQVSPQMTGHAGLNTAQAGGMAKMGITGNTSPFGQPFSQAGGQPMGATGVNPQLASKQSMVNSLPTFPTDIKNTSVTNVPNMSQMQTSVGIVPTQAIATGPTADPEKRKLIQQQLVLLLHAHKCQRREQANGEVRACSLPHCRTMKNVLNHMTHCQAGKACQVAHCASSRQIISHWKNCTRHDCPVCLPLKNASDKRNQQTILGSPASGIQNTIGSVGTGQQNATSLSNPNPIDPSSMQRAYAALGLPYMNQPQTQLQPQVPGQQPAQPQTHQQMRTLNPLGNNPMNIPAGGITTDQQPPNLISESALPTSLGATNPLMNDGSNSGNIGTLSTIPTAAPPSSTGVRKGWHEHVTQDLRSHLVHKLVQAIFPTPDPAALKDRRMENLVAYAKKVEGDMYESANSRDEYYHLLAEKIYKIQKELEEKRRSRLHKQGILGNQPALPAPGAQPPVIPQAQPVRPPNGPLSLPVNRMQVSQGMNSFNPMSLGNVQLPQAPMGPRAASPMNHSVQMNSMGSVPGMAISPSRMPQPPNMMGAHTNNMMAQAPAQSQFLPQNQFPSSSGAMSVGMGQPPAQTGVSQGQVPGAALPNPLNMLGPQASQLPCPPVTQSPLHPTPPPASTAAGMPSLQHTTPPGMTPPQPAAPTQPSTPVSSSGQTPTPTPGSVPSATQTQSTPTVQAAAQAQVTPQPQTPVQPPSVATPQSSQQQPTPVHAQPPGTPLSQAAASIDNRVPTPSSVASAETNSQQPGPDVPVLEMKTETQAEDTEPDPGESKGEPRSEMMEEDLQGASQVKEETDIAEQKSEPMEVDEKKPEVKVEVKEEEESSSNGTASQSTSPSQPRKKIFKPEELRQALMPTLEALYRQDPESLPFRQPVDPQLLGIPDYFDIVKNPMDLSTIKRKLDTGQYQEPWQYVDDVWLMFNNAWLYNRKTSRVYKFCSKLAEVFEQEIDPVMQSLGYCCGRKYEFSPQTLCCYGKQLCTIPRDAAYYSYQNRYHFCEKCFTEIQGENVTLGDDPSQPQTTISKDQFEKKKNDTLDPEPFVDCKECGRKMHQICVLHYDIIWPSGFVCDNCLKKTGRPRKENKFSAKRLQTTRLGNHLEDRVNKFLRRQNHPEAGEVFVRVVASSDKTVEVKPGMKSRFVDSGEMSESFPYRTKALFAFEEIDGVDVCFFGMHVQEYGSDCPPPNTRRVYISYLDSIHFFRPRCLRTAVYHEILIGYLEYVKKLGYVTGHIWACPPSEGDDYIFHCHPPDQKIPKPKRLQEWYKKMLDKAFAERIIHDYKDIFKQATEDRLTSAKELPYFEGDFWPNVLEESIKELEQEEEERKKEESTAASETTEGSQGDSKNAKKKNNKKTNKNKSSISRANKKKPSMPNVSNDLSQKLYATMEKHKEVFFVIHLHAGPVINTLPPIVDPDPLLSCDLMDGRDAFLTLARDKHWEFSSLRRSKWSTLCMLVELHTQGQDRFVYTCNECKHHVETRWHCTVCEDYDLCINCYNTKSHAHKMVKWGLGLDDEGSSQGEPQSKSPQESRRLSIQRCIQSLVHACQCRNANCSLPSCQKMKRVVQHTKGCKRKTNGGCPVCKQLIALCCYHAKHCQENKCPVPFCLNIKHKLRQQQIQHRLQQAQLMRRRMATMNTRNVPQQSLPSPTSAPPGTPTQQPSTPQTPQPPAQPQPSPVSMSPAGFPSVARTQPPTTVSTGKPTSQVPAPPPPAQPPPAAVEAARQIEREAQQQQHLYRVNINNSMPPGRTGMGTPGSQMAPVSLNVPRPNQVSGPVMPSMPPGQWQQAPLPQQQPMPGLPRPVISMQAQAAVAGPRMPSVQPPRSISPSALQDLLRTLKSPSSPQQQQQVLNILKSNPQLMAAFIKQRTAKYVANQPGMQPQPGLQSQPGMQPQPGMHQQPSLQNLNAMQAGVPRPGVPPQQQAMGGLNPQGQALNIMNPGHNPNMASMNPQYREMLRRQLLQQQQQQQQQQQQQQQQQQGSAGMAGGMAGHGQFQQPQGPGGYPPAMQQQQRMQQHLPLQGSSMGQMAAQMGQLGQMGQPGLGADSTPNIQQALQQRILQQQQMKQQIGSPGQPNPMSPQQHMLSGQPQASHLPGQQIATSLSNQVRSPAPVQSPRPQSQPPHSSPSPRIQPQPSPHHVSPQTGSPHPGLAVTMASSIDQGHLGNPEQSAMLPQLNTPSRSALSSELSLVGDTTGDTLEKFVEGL

CREB-binding protein [2] = molecular target: T1, CREB-binding protein; test: Inhibition of human recombinant GST-tagged CREBBP using non acetylated ligand 1 as substrate incubated for 2 hrs by TR-FRET assay
CREB-binding protein [3] = molecular target: T1, CREB-binding protein; test: Competitive binding affinity to human His-tagged CREBBP expressed in T7 phage-infected Escherichia coli BL21(DE3) cells at 50 uM incubated for 1 hr by bromoscan assay relative to control
Target sequence in this assay (Q92793 2-2442 limits assumed): as above

[4] = molecular target: Histone acetyltransferase p300 (Homo sapiens) (UniProt Q09472); test: Binding affinity to EP300 (unknown origin) at 100 uM by SYPRO orange staining based fluorescence thermal shift assay
CREB-binding protein [5] = molecular target: T1, CREB-binding protein; test: Competitive binding affinity to human His-tagged CREBBP expressed in T7 phage-infected Escherichia coli BL21(DE3) cells incubated for 1 hr by bromoscan assay
[6] = molecular target: T2, Bromodomain-containing protein 4 (Homo sapiens, UniProt O60885); test: Competitive binding affinity to human BRD4 bromodomain 2 expressed in T7 phage-infected Escherichia coli BL21(DE3) cells incubated for 1 hr by bromoscan assay
HL-60 = test: Cytotoxicity against human HL60 cells assessed as assessed as growth inhibition after 48 hrs by resazurin assay; format: functional, cell-based
CREB-binding protein [7] = molecular target: T1, CREB-binding protein; test: Binding affinity to human His-tagged CREBBP expressed in Escherichia coli BL21(DE3) cells by isothermal titration calorimetry
MOLM-13 = test: (§1) Cytotoxicity against human MOLM13 cells assessed as assessed as growth inhibition after 48 hrs by resazurin assay; format: functional
[8] = molecular target: T3, Bromodomain-containing protein 2 (Homo sapiens, UniProt P25440); test: Competitive binding affinity to human BRD2 bromodomain 1 expressed in T7 phage-infected Escherichia coli BL21(DE3) cells incubated for 1 hr by bromoscan assay
T3 sequence (P25440 whole entry): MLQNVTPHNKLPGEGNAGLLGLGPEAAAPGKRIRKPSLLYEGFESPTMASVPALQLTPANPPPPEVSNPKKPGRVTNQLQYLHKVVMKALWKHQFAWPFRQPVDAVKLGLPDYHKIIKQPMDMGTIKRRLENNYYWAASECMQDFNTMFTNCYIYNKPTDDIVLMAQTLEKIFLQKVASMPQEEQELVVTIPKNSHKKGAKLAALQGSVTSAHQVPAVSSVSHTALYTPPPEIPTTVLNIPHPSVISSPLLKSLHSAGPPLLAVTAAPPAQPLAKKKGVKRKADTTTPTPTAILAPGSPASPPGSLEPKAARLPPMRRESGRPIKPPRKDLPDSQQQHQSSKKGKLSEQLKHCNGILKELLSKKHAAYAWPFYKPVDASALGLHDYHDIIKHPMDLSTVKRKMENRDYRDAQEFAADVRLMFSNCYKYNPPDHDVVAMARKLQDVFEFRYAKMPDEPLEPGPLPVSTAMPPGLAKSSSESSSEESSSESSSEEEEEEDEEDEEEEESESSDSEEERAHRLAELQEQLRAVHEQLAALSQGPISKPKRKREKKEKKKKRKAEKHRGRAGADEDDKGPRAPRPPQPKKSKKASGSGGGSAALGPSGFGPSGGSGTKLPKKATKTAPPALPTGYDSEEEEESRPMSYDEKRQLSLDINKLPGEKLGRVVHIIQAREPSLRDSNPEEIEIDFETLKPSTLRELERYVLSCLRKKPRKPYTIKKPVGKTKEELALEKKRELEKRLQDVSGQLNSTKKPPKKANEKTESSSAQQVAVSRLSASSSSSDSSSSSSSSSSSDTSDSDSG

[9] = molecular target: T2, Bromodomain-containing protein 4; test: Competitive binding affinity to human BRD4 bromodomain 1 expressed in T7 phage-infected Escherichia coli BL21(DE3) cells incubated for 1 hr by bromoscan assay
[10] = molecular target: T3, Bromodomain-containing protein 2; test: Competitive binding affinity to human BRD2 bromodomain 2 expressed in T7 phage-infected Escherichia coli BL21(DE3) cells incubated for 1 hr by bromoscan assay
[11] = molecular target: T2, Bromodomain-containing protein 4; test: Binding affinity to human BRD4 bromodomain 1 expressed in Escherichia coli BL21(DE3) cells at 100 uM by SYPRO orange staining based fluorescence thermal shift assay
ML-2 = test: (§2) Cytotoxicity against human ML2 cells assessed as growth inhibition after 48 hrs by resazurin assay; format: functional
CREB-binding protein [12] = molecular target: T1, CREB-binding protein; test: Competitive binding affinity to human His-tagged CREBBP expressed in T7 phage-infected Escherichia coli BL21(DE3) cells at 25 uM incubated for 1 hr by bromoscan assay relative to control
Target sequence in this assay (Q92793 2-2442 limits assumed): as the sequence (Q92793 2-2442 limits assumed) above

[13] = molecular target: Histone acetyltransferase p300 (Homo sapiens) (UniProt Q09472); test: Binding affinity to EP300 (unknown origin) at 50 uM by SYPRO orange staining based fluorescence thermal shift assay
CREB-binding protein [14] = molecular target: T1, CREB-binding protein; test: Binding affinity to human His-tagged CREBBP expressed in Escherichia coli BL21(DE3) cells at 50 uM by SYPRO orange staining based fluorescence thermal shift assay
Target sequence in this assay (Q92793 2-2442 limits assumed): as above

[15] = as §1; format: functional; settings: MOLM-13, 48 h
[16] = as §2; format: functional; settings: ML-2, 48 h

ΔTm (CREB-binding protein [1]) [°C]	IC50 (CREB-binding protein [2]) [µM]	ΔTm [4] [°C]	Kd (CREB-binding protein [5]) [µM]	SMILES	growth inhibition (GI) (HL-60)	also measured
0.1	30			CC(=O)c1cccc(NC(=O)/C=C/C(=O)O)c1		
				CC(=O)c1cccc(NC(=O)N2C[C@@H](C)O[C@@H](c3ccccc3)C2)c1		Activity (CREB-binding protein [3]): 9.4%
0	> 10	0		CCOc1ccc(C(C)=O)cc1NC(=O)c1cccc(S(=O)(=O)Nc2ccccc2)c1		
0.2	> 100			CC(=O)c1ccc(C)c(NC(=O)/C=C/C(=O)O)c1		
1.8			4.7	CCOc1ccc(C(C)=O)cc1NC(=O)/C=C/C(=O)O		Activity (CREB-binding protein [3]): 2.5%
-0.1	> 100			CC(=O)c1ccc(F)c(NC(=O)/C=C/C(=O)O)c1		
1.1	> 100			CCOc1ccc(C(C)=O)cc1NC(=O)C1CC1C(=O)O (stereo unspecified)		
5.1	2	4.6	0.53	CCOc1ccc(C(C)=O)cc1NC(=O)c1cc(COC)cc(C(=O)O)c1	Active	Kd [6]: > 50 µM; Kd (CREB-binding protein [7]): 0.8 µM; growth inhibition (GI) (MOLM-13): Active; Kd [8]: > 50 µM; Kd [9]: 25 µM; Kd [10]: > 50 µM; ΔTm [11]: 1.3 °C; growth inhibition (GI) (ML-2): Active
3.3		2.6		CC(=O)c1ccc(OCc2ccccc2)c(NC(=O)c2cccc(C(=O)O)c2)c1		
1.1			37	CCOc1ccc(C(=O)NC)cc1NC(=O)c1cccc(C(=O)O)c1		
				CC(=O)c1cccc(NC(=O)Cn2c(=O)c3ccccc3n3nc(C)cc23)c1		Activity (CREB-binding protein [12]): 22%
5.2	1	5.9	0.17	CCOc1ccc(C(C)=O)cc1NC(=O)c1cc(C(=O)O)cc(-c2ccoc2)c1	Active	Kd [6]: > 36 µM; Kd (CREB-binding protein [7]): 0.3 µM; growth inhibition (GI) (MOLM-13): Active; Kd [8]: 24 µM; Kd [9]: 9.8 µM; Kd [10]: 24 µM; ΔTm [11]: 1.5 °C; growth inhibition (GI) (ML-2): Active
0.5		0.4		CCOc1ccc(C(C)=O)cc1NC(=O)c1cccc(NS(=O)(=O)c2ccccc2)c1		
3.8	8.7	3.4	0.67	CCOc1ccc(C(C)=O)cc1NC(=O)c1cccc(C(=O)O)c1	Active	Kd [6]: > 50 µM; Kd (CREB-binding protein [7]): 2 µM; growth inhibition (GI) (MOLM-13): Active; Kd [8]: > 50 µM; Kd [9]: > 50 µM; Kd [10]: > 50 µM; ΔTm [11]: 0.4 °C; growth inhibition (GI) (ML-2): Active
3.4			2.5	CCOc1ccc(C(C)=O)cc1C(=O)Nc1cccc(C(=O)O)c1	Active	growth inhibition (GI) (MOLM-13): Active; growth inhibition (GI) (ML-2): Active
2.8	5		0.49	CCOc1ccc(C(C)=O)cc1NC(=O)c1cccc(C(=O)OC)c1		
3.1	15	3.1		CC(=O)c1ccc(C2CC2)c(NC(=O)c2cccc(C(=O)O)c2)c1		
3.4		3.6		CC(=O)c1ccc(OCC2CC2)c(NC(=O)c2cccc(C(=O)O)c2)c1	Active	growth inhibition (GI) (MOLM-13): Active; growth inhibition (GI) (ML-2): Active
1.9	64			CCOc1ccc(C(C)=O)cc1NC(=O)c1ccccc1C(=O)O		
3.8	3	3.7		CCOc1ccc(C(C)=O)cc1NC(=O)c1cc(CO)cc(C(=O)O)c1	Active	growth inhibition (GI) (MOLM-13): Active; growth inhibition (GI) (ML-2): Active
3.8	7.4	3.4		CCCOc1ccc(C(C)=O)cc1NC(=O)c1cccc(C(=O)O)c1	Active	growth inhibition (GI) (MOLM-13): Active; growth inhibition (GI) (ML-2): Active
	3			CCOc1ccc(C(C)=O)cc1NC(=O)c1cc(C(=O)O)cc(-c2ccncc2)c1		ΔTm [13]: 3.9 °C; ΔTm (CREB-binding protein [14]): 4.1 °C
6	1	5.9	0.37	CCOc1ccc(C(C)=O)cc1NC(=O)c1cc(COC2CCCCO2)cc(C(=O)O)c1 (stereo unspecified)	Active	GI50 [15]: 5.3 µM; ΔTm [11]: 1.7 °C; GI50 [16]: 14.4 µM
3.3	7.5	2.6		CCOc1ccc(C(C)=O)cc1NC(=O)c1cccc(-n2cnnn2)c1		
3.5		3		CC(=O)c1ccc(OCC(C)C)c(NC(=O)c2cccc(C(=O)O)c2)c1	Active	growth inhibition (GI) (MOLM-13): Active; growth inhibition (GI) (ML-2): Active
1.1	60			COc1ccc(C(C)=O)cc1NC(=O)/C=C/C(=O)O		
1.4		1.3		CC(=O)c1ccc(N2CCOCC2)c(NC(=O)c2cccc(C(=O)O)c2)c1		
			29	CC(=O)c1cccc(NC(=O)c2c(-n3cnnn3)sc(C)c2C)c1		Activity (CREB-binding protein [12]): 2%
